How the values were obtained:
[1] = system: LNCaP tumor-transplanted mouse; assay: Internal radioactivity distribution using LNCaP tumor-transplanted mouse; format: in vivo
Description: (§1) The animal test was performed in compliance with the guidelines of Kyoto University Animal Experiment Committee. Male CB17/IcrJcl-Prkdc^scid mice were purchased from CLEA Japan, Inc. The animals were kept under 12 h/12 h, day/night cycle conditions and fed ad libitum with food and water. LNCaP cells (1.0×10^7 cells/mouse) or PC-3 cells (1.0×10^7 cells/mouse) were suspended in a mixture of PBS and Matrigel manufactured by Corning Life Sciences (1:1, 150 μL) and the suspension was subcutaneously transplanted to the right shoulder of mice under isoflurane anesthesia. Thereafter, the mice were kept for 40 to 60 days.
LNCaP or PC-3 tumor-implanted mice were administered saline solutions (185 kBq, 100 μL) of [^111In]In-PSMA-DA1 or [^111In]In-PSMA-DB from the tail vein (n=3 each). Mice were euthanized 1, 4, 24, 48, 96, and 192 hours after administration. Thereafter, blood and each organ were recovered, and the mass and radioactivity of the organs were measured.
The percentage (% ID) of the radioactivity amount to the administered radioactivity amount (injected dose) is shown as the value (% ID/g) divided by the blood mass or the organ mass (g).
LNCaP tumor-implanted mice prepared by the same method as in Example 1-1 were administered a saline solution (241 kBq/100 μL) of [^111In]In-PtDA from the tail vein (n=3). Mice were euthanized 1, 24, and 48 hours after administration. Thereafter, blood and each organ were recovered, and the mass and radioactivity of the organs were measured.
LNCaP tumor-implanted mice prepared by the same method as in Example 1-1 were administered a saline solution (259 kBq/100 μL each) of each of the radiolabeled compounds in Examples 3-1 to 3-3 or Comparative Examples 2-1 to 2-2 from the tail vein (n=2 to 3). Mice were euthanized 1, 4, 24, 48, 96, and 192 hours after administration. Thereafter, blood and each organ were recovered, and the mass and radioactivity of the organs were measured.
as §1, with “LNCaP cells (4.3×10^6 cells/mouse) or” for “LNCaP cells (1.0×10^7 cells/mouse) or”, “PC-3 cells (3.3×10^6 cells/mouse) were” for “PC-3 cells (1.0×10^7 cells/mouse) were”, “shoulder of CB17/IcrJcl-Prkdc^scid mice under” for “shoulder of mice under”
Mice were euthanized 1, 4, 24, 48, 96, and 192 hours after administration. Thereafter, blood and each organ were recovered, and the mass and radioactivity of the organs were measured.
The results are shown in Table 12 (Mean value±standard deviation, n=3).

[2] = molecular target: human serum albumin (HSA) (Homo sapiens, UniProt P02768); assay: Evaluation of binding to albumin (HSA solution, PBS control); conditions: left to stand in HSA solution (45 mg/mL)
Description: Thereafter, the reaction liquids were added to a spin column (Sephadex G-100; manufactured by Cytiva), and centrifuged at 1500×g at 4° C. for 2 minutes. After separation, the radioactivity for each of the column and the eluate was measured with a gamma counter.
When a compound to be evaluated binds to albumin to form a composite, the compound passes through the column because of the increased molecular size.
As in Examples described above, PBS and human albumin were used to evaluate binding to albumin.
Thereafter, the reaction liquid was added to a spin column (Sephadex G-50; manufactured by Cytiva), and centrifuged at 1500×g at 4° C. for 2 minutes. After separation, the radioactivity of the column and the eluate was measured with a gamma counter.

Chain of human serum albumin (HSA) (P02768 25-609): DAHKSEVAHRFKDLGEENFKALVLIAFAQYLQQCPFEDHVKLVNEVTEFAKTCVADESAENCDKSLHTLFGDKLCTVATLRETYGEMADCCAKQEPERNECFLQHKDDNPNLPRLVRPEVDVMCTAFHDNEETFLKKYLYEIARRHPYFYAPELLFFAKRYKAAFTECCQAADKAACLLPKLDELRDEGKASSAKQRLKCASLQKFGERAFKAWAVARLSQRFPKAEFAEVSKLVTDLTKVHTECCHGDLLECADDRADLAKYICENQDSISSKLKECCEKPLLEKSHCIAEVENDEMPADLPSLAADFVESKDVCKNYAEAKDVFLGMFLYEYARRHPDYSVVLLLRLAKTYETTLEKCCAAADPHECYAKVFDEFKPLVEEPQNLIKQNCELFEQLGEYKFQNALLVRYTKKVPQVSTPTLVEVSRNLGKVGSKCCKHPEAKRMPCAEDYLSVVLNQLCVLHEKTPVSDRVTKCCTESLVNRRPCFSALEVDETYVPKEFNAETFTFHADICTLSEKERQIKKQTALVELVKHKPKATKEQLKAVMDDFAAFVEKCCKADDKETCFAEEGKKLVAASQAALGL

Blood ([1]; 1 h after administration): 27.2 ± 2.92 % ID/g
Brain ([1]; 1 h after administration): 0.40 ± 0.05 % ID/g
Heart ([1]; 1 h after administration): 6.53 ± 0.66 % ID/g
Intestine ([1]; 1 h after administration): 2.60 ± 0.48 % ID/g
Kidney ([1]; 1 h after administration): 57.1 ± 17.4 % ID/g
LNCaP Tumor ([1]; 1 h after administration): 7.79 ± 1.11 % ID/g
Liver ([1]; 1 h after administration): 4.32 ± 0.40 % ID/g
Lung ([1]; 1 h after administration): 16.7 ± 1.41 % ID/g
Muscle ([1]; 1 h after administration): 1.51 ± 0.23 % ID/g
Pancreas ([1]; 1 h after administration): 2.59 ± 0.26 % ID/g
Spleen ([1]; 1 h after administration): 8.56 ± 0.95 % ID/g
Stomach (% ID) ([1]; 1 h after administration): 0.49 ± 0.04 % ID
Blood ([1]; 4 h after administration): 19.3 ± 3.84 % ID/g
Brain ([1]; 4 h after administration): 0.31 ± 0.07 % ID/g
Heart ([1]; 4 h after administration): 5.98 ± 0.93 % ID/g
Intestine ([1]; 4 h after administration): 3.23 ± 0.18 % ID/g
Kidney ([1]; 4 h after administration): 100 ± 6.33 % ID/g
LNCaP Tumor ([1]; 4 h after administration): 11.3 ± 2.39 % ID/g
Liver ([1]; 4 h after administration): 3.36 ± 0.39 % ID/g
Lung ([1]; 4 h after administration): 14.1 ± 2.06 % ID/g
Muscle ([1]; 4 h after administration): 1.26 ± 0.18 % ID/g
Pancreas ([1]; 4 h after administration): 2.17 ± 0.15 % ID/g
Spleen ([1]; 4 h after administration): 7.42 ± 0.88 % ID/g
Stomach (% ID) ([1]; 4 h after administration): 0.78 ± 0.28 % ID
Blood ([1]; 24 h after administration): 7.20 ± 0.50 % ID/g
Brain ([1]; 24 h after administration): 0.16 ± 0.01 % ID/g
Heart ([1]; 24 h after administration): 2.50 ± 0.17 % ID/g
Intestine ([1]; 24 h after administration): 1.23 ± 0.28 % ID/g
Kidney ([1]; 24 h after administration): 26.4 ± 2.50 % ID/g
LNCaP Tumor ([1]; 24 h after administration): 8.04 ± 0.38 % ID/g
Liver ([1]; 24 h after administration): 1.73 ± 0.09 % ID/g
Lung ([1]; 24 h after administration): 5.85 ± 0.39 % ID/g
Muscle ([1]; 24 h after administration): 0.61 ± 0.04 % ID/g
Pancreas ([1]; 24 h after administration): 1.24 ± 0.16 % ID/g
Spleen ([1]; 24 h after administration): 2.87 ± 0.40 % ID/g
Stomach (% ID) ([1]; 24 h after administration): 0.25 ± 0.08 % ID
Blood ([1]; 48 h after administration): 3.88 ± 1.13 % ID/g
Brain ([1]; 48 h after administration): 0.12 ± 0.02 % ID/g
Heart ([1]; 48 h after administration): 1.37 ± 0.18 % ID/g
Intestine ([1]; 48 h after administration): 0.62 ± 0.14 % ID/g
Kidney ([1]; 48 h after administration): 17.3 ± 5.57 % ID/g
LNCaP Tumor ([1]; 48 h after administration): 7.79 ± 2.72 % ID/g
Liver ([1]; 48 h after administration): 1.42 ± 0.08 % ID/g
Lung ([1]; 48 h after administration): 3.18 ± 0.68 % ID/g
Muscle ([1]; 48 h after administration): 0.26 ± 0.05 % ID/g
Pancreas ([1]; 48 h after administration): 0.60 ± 0.13 % ID/g
Spleen ([1]; 48 h after administration): 1.76 ± 0.39 % ID/g
Stomach (% ID) ([1]; 48 h after administration): 0.13 ± 0.04 % ID
Blood ([1]; 96 h after administration): 0.63 ± 0.32 % ID/g
Brain ([1]; 96 h after administration): 0.07 ± 0.02 % ID/g
Heart ([1]; 96 h after administration): 0.43 ± 0.17 % ID/g
Intestine ([1]; 96 h after administration): 0.29 ± 0.09 % ID/g
Kidney ([1]; 96 h after administration): 4.33 ± 2.06 % ID/g
LNCaP Tumor ([1]; 96 h after administration): 4.17 ± 0.80 % ID/g
Liver ([1]; 96 h after administration): 0.70 ± 0.25 % ID/g
Lung ([1]; 96 h after administration): 0.78 ± 0.29 % ID/g
Muscle ([1]; 96 h after administration): 0.08 ± 0.03 % ID/g
Pancreas ([1]; 96 h after administration): 0.22 ± 0.06 % ID/g
Spleen ([1]; 96 h after administration): 0.88 ± 0.32 % ID/g
Stomach (% ID) ([1]; 96 h after administration): 0.06 ± 0.03 % ID
Blood ([1]; 192 h after administration): 0.03 ± 0.00 % ID/g
Brain ([1]; 192 h after administration): 0.02 ± 0.01 % ID/g
Heart ([1]; 192 h after administration): 0.12 ± 0.02 % ID/g
Intestine ([1]; 192 h after administration): 0.05 ± 0.01 % ID/g
Kidney ([1]; 192 h after administration): 0.27 ± 0.02 % ID/g
LNCaP Tumor ([1]; 192 h after administration): 1.31 ± 0.49 % ID/g
Liver ([1]; 192 h after administration): 0.35 ± 0.04 % ID/g
Lung ([1]; 192 h after administration): 0.12 ± 0.04 % ID/g
Muscle ([1]; 192 h after administration): 0.01 ± 0.02 % ID/g
Pancreas ([1]; 192 h after administration): 0.07 ± 0.01 % ID/g
Spleen ([1]; 192 h after administration): 0.31 ± 0.11 % ID/g
Stomach (% ID) ([1]; 192 h after administration): 0.01 ± 0.00 % ID
radioactivity in the eluate (in words) [2]: significantly higher
Structure (SMILES): O=C([O-])CN(Cc1cccc(C(=O)[O-])n1)C[C@H](Cc1ccc(NC(=O)[C@H](CCCCNC(=O)CCC(=O)NCCCC[C@H](NC(=O)N[C@@H](CCC(=O)O)C(=O)O)C(=O)O)NC(=O)COCCOCCOCC(=O)N[C@@H](CCCCNC(=O)CCCc2ccc(I)cc2)C(=O)O)cc1)N(CC(=O)[O-])Cc1cccc(C(=O)[O-])n1.[111In+3] [[^111In]In-Octapa-3]
